From patent publication US20250072423A1, “THIOPHENE ACETIC ACID FOR PLANT GROWTH REGULATION” (priority 2023, published 2025) come the findings set out here.

In series [1] the test system is AtLBD29, AT3G58190. Description: qRT-PCR of early auxin-responsive gene AtLBD29 (Experiment 9). Particulars: 5 and 10 μM TAA, both time points. The series is classed as in vivo, A. thaliana. As to the method: (§1) To analyze TAA responsive genes in Arabidopsis, WT Arabidopsis seeds were germinated as described and 14-day-old uniform-looking seedlings were initially acclimatized in liquid germination medium for 2 hours before transferring to medium containing different concentrations of TAA (5 and 10 μM). Seedlings in media supplemented with DMSO were used as control. Five random seedlings were selected and considered as one sample and three samples from both control and treatments were flash frozen in liquid nitrogen and total RNA was isolated using a TRIzol reagent (ThermoFisher Scientific, Cat #15596026).
(§2) Expression levels of seven previously reported early auxin-responsive genes were verified by qRT-PCR (quantitative reverse transcription polymerase chain reaction). RNA reverse transcription was performed using QuantiTect Reverse Transcription Kit (Qiagen). Three biological replicates and three technical replicates were used for all qRT-PCRs. Arabidopsis actin gene (AT3G18780) was used as internal reference.
Background: Real-time PCR tracks product formation cycle by cycle.

The test system of series [2] is tomato cotyledon explants. In words: Shoot regeneration from tomato cotyledon explants with 1 mg/L BAP (Experiment 3). The series is classed as cell-based, tomato cultivar Roma VF. From the text:
The sterilized seeds were germinated on half-strength Murashige and Skoog (MS) medium in vitro. Cotyledons from 10-day old seedlings before first true leaves emerged were used as starting explants in all the experiments. The base and tip of the cotyledons were excised and the explants were transferred with the abaxial surface in contact with the culture medium. The basic culture medium consists of MS medium with vitamins supplemented with 30 g/L sucrose and gelled with 0.8% agar, and the pH of the medium was adjusted to 5.8±0.2. […] All experiments were conducted with at least three replicates of 10 explants each.
To analyse the effects on shoot regeneration, the basic media was supplemented with 1 mg/L BAP and different concentrations of TAA, IAA, NAA, IBA and 2,4 D (0.05, 0.1, 0.5, 1.0 and 2.0 mg/L) individually. Since there are no previous reports on suitable concentration ranges for TAA in tomato regeneration, concentrations at 50.0, 100.0, 200.0 and 300.0 mg/L were analysed additionally for TAA.

Series [3] relates to tomato cotyledon explants. The series is described as above. Type of series: cell-based, tomato cultivar Roma VF. This is another data set of the same source.
The subject of series [4] is AtIAA19 (AT3G15540). In words: qRT-PCR of early auxin-responsive gene AtIAA19 (Experiment 9). Type of series: in vivo, A. thaliana. Particulars: 5 and 10 μM TAA. On the procedure:
as §1, §2

Series [5] has as its system AtGH3.3 (AT2G23170). In words: qRT-PCR of early auxin-responsive gene AtGH3.3 (Experiment 9). Type of series: in vivo, A. thaliana. The note with it: 5 and 10 μM TAA, concentration and time-dependent. As to the method:
as §1, §2

In series [6] the test system is tobacco leaf explants. Description: Shoot organogenesis from tobacco leaf explants in vitro (Experiment 4). The series is classed as cell-based, Nicotiana tabacum L. cv. Petit Havana SRI. The note with it: 8 weeks.
Series [7] deals with WT Arabidopsis seedlings. Description: Root growth of WT Arabidopsis seedlings (Experiment 6). The series is classed as in vivo, A. thaliana. As to the method:
Arabidopsis Columbia-0 wild type (WT) was used for assessing the effect of TAA on root growth and its effects on the expression of auxin-responsive genes. Seeds of A. thaliana were surface sterilized by suspending in 70% ethanol for 1 minute, followed by treatment with 10% bleach for 20 minutes. After thorough washing with sterile distilled water, the sterilized seeds were plated onto germination medium (half-strength Murashige and Skoog basal medium with vitamins (1/2 MS) medium supplemented with 1% sucrose and 0.7% plant agar) for germination. Germination was initiated by incubating the seeds in darkness at 5° C. for 2 days, followed by transfer to a light environment at 22° C. with a photoperiod of 16-h light/8-h dark for further growth. Stock solutions of TAA were prepared in DMSO (dimethyl sulfoxide). In control treatments, DMSO was used in equal amounts as present in the greatest concentration of TAA tested.
To analyze the effect of TAA on root growth, WT Arabidopsis seedlings were germinated as described and uniform-looking 8-day-old seedlings were transferred to germination medium supplemented with different concentrations of TAA (0.1, 1, 2, 5, 10, 25, 50, and 100 μM) or NAA/IAA/IBA (0.05, 0.1, 1, 2 and 5 μM). For IBA, two additional concentrations (10 and 25 μM) were also analyzed. Seedlings grown on media supplemented with an equal volume of DMSO were used as control. The seedlings were allowed to grow for 6 days and the plates were photographed at 24 h intervals. Primary root length was measured using Image J software. The difference in the number of lateral roots (LR) and root hairs was visually observed. Microscopic images were taken on a Leica Thunder Imager System (Leica Microsystems Ltd., Switzerland) and the images were processed with LAS X software.

The test system of series [8] is tomato cotyledon explants. In words: Root regeneration from tomato cotyledon explants in vitro (Experiment 2). Type of series: cell-based, tomato cultivar Roma VF. Particulars: 0.05 and 0.1 mg/L. On the procedure:
Seeds of tomato cultivar Roma VF were sterilized by treating with 75% ethanol for 30 seconds at room temperature and washed with sterile water for five times. The seeds were then treated with 15% sodium hypochlorite for 10 minutes and washed five times in sterile water. The sterilized seeds were germinated on half-strength Murashige and Skoog (MS) medium in vitro. Cotyledons from 10-day old seedlings before first true leaves emerged were used as starting explants in all the experiments. The base and tip of the cotyledons were excised and the explants were transferred with the abaxial surface in contact with the culture medium. The basic culture medium consists of MS medium with vitamins supplemented with 30 g/L sucrose and gelled with 0.8% agar, and the pH of the medium was adjusted to 5.8±0.2. Plates were maintained at a light cycle of 16/8 hours day/night, temperature of 26/24° C. day/night, and relative humidity of 70% and subcultured on the same media after 14 days. Observations were made on 7, 14, 21 and 28 days of growth. All experiments were conducted with at least three replicates of 10 explants each.
In order to analyze the effect of TAA on root regeneration, the basic media were supplemented with different concentrations of TAA (0.05 and 0.1 mg/L) and further compared with individual effect of widely used auxins (IAA, NAA, IBA, 2,4 D) at similar concentrations.

The test system of series [9] is AtPIN1 (AT1G73590). Description: qRT-PCR of early auxin-responsive gene AtPIN1 (Experiment 9). Type of series: in vivo, A. thaliana. The note with it: 10 μM TAA, after 6 hours. As to the method: as §1, §2
In series [10] the test system is AtARF19, AT1G19220. In words: qRT-PCR of early auxin-responsive gene AtARF19 (Experiment 9). The note with it: 5 and 10 μM TAA, both time points. The series is classed as in vivo, A. thaliana. As to the method:
as §1, §2

Take `O=C(O)Cc1ccsc1` [TAA]: in [1], the AtLBD29 expression result is on record as “upregulation”. In addition, the “time to necrosis of explants” value in series [2] (300 mg/L with 1 mg/L BAP) is on record as at most 7 days. The survival of explants result in series [2] (300 mg/L with 1 mg/L BAP, by Day 28) is “all explants were dead”. Also, the shoot organogenesis entry is “did not show any shoot or root formation” in series [2] (50.0, 100.0 and 200.0 mg/L with 1 mg/L BAP); “many explants had well defined shoots” in series [3] (0.05, 0.1, 0.5, 1.0, 2.0 and 10.0 mg/L with 1 mg/L BAP, by Day 28). Besides, in [3] (10.0 mg/L with 1 mg/L BAP), the “number of shoots (shoot regeneration)” value was “maximum number of shoots”. Besides, in series [3] (0.05, 0.1, 0.5, 1.0, 2.0 and 10.0 mg/L with 1 mg/L BAP), the “start of shoot formation” value is around 14 days. Moreover, the AtIAA19 expression result in [4] was “induction”. In series [5], the AtGH3.3 upregulation entry was “over 70 fold”. Further, the “number of shoots regenerated per explant versus basic shoot regeneration media” value in series [6] (1 mg/L TAA with 2 mg/L kinetin) and in [6] (2 mg/L TAA with 2 mg/L kinetin) was 3 times each time. For the same compound, the “total number of shoots regenerated versus basic shoot regeneration media” value in series [6] (1 mg/L TAA with 2 mg/L kinetin) and in [6] (2 mg/L TAA with 2 mg/L kinetin) was 3 times in each case. In addition, the “number of regenerated shoots versus basic shoot regeneration media” value in [6] (3 mg/L TAA with 2 mg/L kinetin) and in series [6] (5 mg/L TAA with 2 mg/L kinetin) was “more than double” in each case. Moreover, in series [6] (TAA added to 3% MS + 2 mg/L kinetin), the “effect on shoot regeneration and size of regenerated shoots” value is “positive effect”. The “length of the primary root relative to control” value in [7] (50 μM, after 6 days of treatment, 8-day-old seedlings) is on record as 50%. The “number and elongation of lateral roots (LR)” value in series [7] (higher concentrations (5 μM and above)) is “reduced the number of LR and inhibited the elongation of LR”. Also, the “effect on primary root length” value in [7] (low concentration range (FIG. 8a)) was “promoter role”. Further, the “number of lateral roots (LR)” value in [7] (lower concentrations of TAA) was “increased”. Besides, the “root growth / root regeneration compared with known auxins” value in series [8] (after Day 7 (FIG. 3)) is “performs on par with most known auxins”. The “organogenesis from tomato cotyledon explants (root formation)” value in [8] (no other hormones, within 7 days) is recorded as “rapid root formation”. For the same compound, in series [9], the AtPIN1 gene expression result is “nearly five-fold”. Moreover, in series [10], the AtARF19 expression result was “upregulation”.
